Source: PubChem BioAssay AID256 (DTP/NCI, 2004)
Values joined by “and” are separate entries in the source; they are usually repeats but may differ in a detail not shown here. Equal values may be shown once. Toxic doses and inconclusive results are not listed.

Tested on: CD2F1 mice, L1210 leukemia ip, survival T/C
Assay: NCI In Vivo Anticancer Drug Screen. Data for tumor model L1210 Leukemia (intraperitoneal) in CD2F1 (CDF1) mice
Conditions: higher = longer survival
In short: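 Activity against a transplanted murine tumor was judged by comparing the compound group with a vehicle group. The outcome in the treated animals was divided by that in the controls.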

SMILES: O=P1(N(CCCl)CCCl)NCCCO1 (configuration not stated)
- T/C (endpoint: mean survival time, dose: 10.0 mg/kg/injection, schedule: Q01DX009 (ip), vehicle: saline): 124 % of control
- T/C (endpoint: mean survival time, dose: 12.5 mg/kg/injection, schedule: Q01DX005 (ip), vehicle: water): 120 % of control and 122 % of control
- T/C (endpoint: mean survival time, dose: 12.5 mg/kg/injection, schedule: Q01DX009 (ip), vehicle: saline): 114 % of control and 123 % of control
- T/C (endpoint: mean survival time, dose: 20.0 mg/kg/injection, schedule: Q01DX009 (ip), vehicle: saline): 122 % of control
- T/C (endpoint: mean survival time, dose: 20.0 mg/kg/injection, schedule: Q03DX003 (ip), vehicle: saline): 124 % of control
- T/C (endpoint: mean survival time, dose: 20.0 mg/kg/injection, schedule: Q04DX003 (ip), vehicle: saline): 114 % of control and 115 % of control
- T/C (endpoint: mean survival time, dose: 25.0 mg/kg/injection, schedule: Q01DX001 (ip), vehicle: DMSO): 115 % of control
- T/C (endpoint: mean survival time, dose: 30.0 mg/kg/injection, schedule: Q04DX003 (ip), vehicle: water): 113 % of control
- T/C (endpoint: mean survival time, dose: 31.3 mg/kg/injection, schedule: Q01DX001 (ip), vehicle: DMSO): 114 % of control
- T/C (endpoint: mean survival time, dose: 31.3 mg/kg/injection, schedule: Q01DX001 (ip), vehicle: saline): 113 % of control
- T/C (endpoint: mean survival time, dose: 38.9 mg/kg/injection, schedule: Q01DX001 (ip), vehicle: water): 119 % of control
- T/C (endpoint: mean survival time, dose: 40.0 mg/kg/injection, schedule: Q01DX007 (ip), vehicle: saline): 163 % of control
- T/C (endpoint: mean survival time, dose: 40.0 mg/kg/injection, schedule: Q01DX009 (ip), vehicle: saline): 170 % of control
- T/C (endpoint: mean survival time, dose: 40.0 mg/kg/injection, schedule: Q03DX003 (ip), vehicle: saline): 151 % of control
- T/C (endpoint: mean survival time, dose: 40.0 mg/kg/injection, schedule: Q04DX003 (ip), vehicle: saline): 155 % of control
- T/C (endpoint: mean survival time, dose: 50.0 mg/kg/injection, schedule: Q01DX001 (ip), vehicle: DMSO): 117 % of control
- T/C (endpoint: mean survival time, dose: 50.0 mg/kg/injection, schedule: Q01DX001 (ip), vehicle: Klucel (hydroxypropylcellulose) (HPC)): 113 % of control
- T/C (endpoint: mean survival time, dose: 50.0 mg/kg/injection, schedule: Q01DX001 (ip), vehicle: other): 115 % of control
- T/C (endpoint: mean survival time, dose: 50.0 mg/kg/injection, schedule: Q01DX009 (ip), vehicle: saline): 165 % of control and 173 % of control
- T/C (endpoint: mean survival time, dose: 62.5 mg/kg/injection, schedule: Q01DX001 (ip), vehicle: Klucel (hydroxypropylcellulose) (HPC)): 122 % of control
- T/C (endpoint: mean survival time, dose: 62.5 mg/kg/injection, schedule: Q01DX001 (ip), vehicle: saline with Tween-80): 124 % of control
- T/C (endpoint: mean survival time, dose: 62.5 mg/kg/injection, schedule: Q01DX001 (ip), vehicle: water): 121 % of control and 122 % of control
- T/C (endpoint: mean survival time, dose: 80.0 mg/kg/injection, schedule: Q03DX003 (ip), vehicle: saline): 192 % of control
- T/C (endpoint: mean survival time, dose: 80.0 mg/kg/injection, schedule: Q04DX003 (ip), vehicle: saline): 187 % of control
- T/C (endpoint: mean survival time, dose: 100.0 mg/kg/injection, schedule: Q01DX001 (ip), vehicle: DMSO): 158 % of control
- T/C (endpoint: mean survival time, dose: 108.0 mg/kg/injection, schedule: Q01DX001 (ip), vehicle: saline): 164 % of control
- T/C (endpoint: mean survival time, dose: 108.0 mg/kg/injection, schedule: Q01DX001 (ip), vehicle: water): 169 % of control
- T/C (endpoint: mean survival time, dose: 125.0 mg/kg/injection, schedule: Q01DX001 (ip), vehicle: Klucel (hydroxypropylcellulose) (HPC)): 170 % of control
- T/C (endpoint: mean survival time, dose: 125.0 mg/kg/injection, schedule: Q01DX001 (ip), vehicle: saline with Tween-80): 150 % of control and 159 % of control
- T/C (endpoint: mean survival time, dose: 125.0 mg/kg/injection, schedule: Q01DX001 (ip), vehicle: water): 156 % of control and 173 % of control
- T/C (endpoint: mean survival time, dose: 133.0 mg/kg/injection, schedule: Q01DX001 (ip), vehicle: saline): 167 % of control
- T/C (endpoint: mean survival time, dose: 135.0 mg/kg/injection, schedule: Q01DX001 (ip), vehicle: saline): 158 % of control and 171 % of control
- T/C (endpoint: mean survival time, dose: 150.0 mg/kg/injection, schedule: Q01DX001 (ip), vehicle: water): 172 % of control
- T/C (endpoint: mean survival time, dose: 160.0 mg/kg/injection, schedule: Q01DX009 (ip), vehicle: saline): 124 % of control
- T/C (endpoint: mean survival time, dose: 180.0 mg/kg/injection, schedule: Q01DX001 (ip), vehicle: water): 176 % of control
- T/C (endpoint: mean survival time, dose: 196.0 mg/kg/injection, schedule: Q01DX001 (ip), vehicle: saline): 201 % of control
- T/C (endpoint: mean survival time, dose: 200.0 mg/kg/injection, schedule: Q01DX001 (ip), vehicle: Klucel (hydroxypropylcellulose) (HPC)): 164 % of control and 198 % of control
- T/C (endpoint: mean survival time, dose: 200.0 mg/kg/injection, schedule: Q01DX001 (ip), vehicle: other): 189 % of control
- T/C (endpoint: mean survival time, dose: 200.0 mg/kg/injection, schedule: Q01DX005 (ip), vehicle: water): 191 % of control
- T/C (endpoint: mean survival time, dose: 200.0 mg/kg/injection, schedule: Q04DX003 (ip), vehicle: saline): 205 % of control
- T/C (endpoint: mean survival time, dose: 250.0 mg/kg/injection, schedule: Q01DX001 (ip), vehicle: saline with Tween-80): 190 % of control
- T/C (endpoint: mean survival time, dose: 250.0 mg/kg/injection, schedule: Q01DX001 (ip), vehicle: water): 188 % of control and 261 % of control and 280 % of control
- T/C (endpoint: mean survival time, dose: 320.0 mg/kg/injection, schedule: Q04DX003 (ip), vehicle: saline): 117 % of control
- T/C (endpoint: mean survival time, dose: 400.0 mg/kg/injection, schedule: Q01DX001 (ip), vehicle: Klucel (hydroxypropylcellulose) (HPC)): 187 % of control
- T/C (endpoint: mean survival time, dose: 400.0 mg/kg/injection, schedule: Q01DX001 (ip), vehicle: other): 183 % of control
- T/C (endpoint: mean survival time, dose: 450.0 mg/kg/injection, schedule: Q01DX001 (ip), vehicle: saline): 209 % of control
- T/C (endpoint: mean survival time, dose: 500.0 mg/kg/injection, schedule: Q01DX001 (ip), vehicle: Klucel (hydroxypropylcellulose) (HPC)): 173 % of control
- T/C (endpoint: mean survival time, dose: 500.0 mg/kg/injection, schedule: Q01DX001 (ip), vehicle: saline with Tween-80): 197 % of control
- T/C (endpoint: mean survival time, dose: 500.0 mg/kg/injection, schedule: Q01DX001 (ip), vehicle: water): 253 % of control and 223 % of control and 271 % of control
- T/C (endpoint: median survival time, dose: 12.5 mg/kg/injection, schedule: Q01DX009 (ip), vehicle: saline): 120 % of control and 122 % of control
- T/C (endpoint: median survival time, dose: 20.0 mg/kg/injection, schedule: Q01DX009 (ip), vehicle: water): 121 % of control
- T/C (endpoint: median survival time, dose: 25.0 mg/kg/injection, schedule: Q01DX001 (ip), vehicle: saline): 117 % of control and 118 % of control
- T/C (endpoint: median survival time, dose: 25.0 mg/kg/injection, schedule: Q01DX001 (ip), vehicle: water): 113 % of control
- T/C (endpoint: median survival time, dose: 31.25 mg/kg/injection, schedule: Q01DX001 (ip), vehicle: water): 116 % of control and 119 % of control (2×)
- T/C (endpoint: median survival time, dose: 40.0 mg/kg/injection, schedule: Q01DX009 (ip), vehicle: water): 153 % of control
- T/C (endpoint: median survival time, dose: 50.0 mg/kg/injection, schedule: Q01DX005 (ip), vehicle: saline): 169 % of control
- T/C (endpoint: median survival time, dose: 50.0 mg/kg/injection, schedule: Q01DX009 (ip), vehicle: saline): 178 % of control and 182 % of control
- T/C (endpoint: median survival time, dose: 50.0 mg/kg/injection, schedule: Q03DX003 (ip), vehicle: saline): 162 % of control
- T/C (endpoint: median survival time, dose: 62.5 mg/kg/injection, schedule: Q01DX001 (ip), vehicle: water): 151 % of control
- T/C (endpoint: median survival time, dose: 66.0 mg/kg/injection, schedule: Q07DX003 (sc), vehicle: saline): 155 % of control and 162 % of control
- T/C (endpoint: median survival time, dose: 100.0 mg/kg/injection, schedule: Q01DX001 (ip), vehicle: water): 155 % of control and 160 % of control
- T/C (endpoint: median survival time, dose: 100.0 mg/kg/injection, schedule: Q01DX009 (ip), vehicle: saline): 114 % of control
- T/C (endpoint: median survival time, dose: 100.0 mg/kg/injection, schedule: Q03DX003 (ip), vehicle: saline): 202 % of control
- T/C (endpoint: median survival time, dose: 108.0 mg/kg/injection, schedule: Q01DX001 (iv), vehicle: saline): 171 % of control
- T/C (endpoint: median survival time, dose: 125.0 mg/kg/injection, schedule: Q01DX001 (ip), vehicle: water): 183 % of control
- T/C (endpoint: median survival time, dose: 150.0 mg/kg/injection, schedule: Q01DX001 (ip), vehicle: saline): 169 % of control
- T/C (endpoint: median survival time, dose: 250.0 mg/kg/injection, schedule: Q01DX001 (ip), vehicle: water): 173 % of control
- T/C (endpoint: median survival time, dose: 330.0 mg/kg/injection, schedule: Q07DX003 (ip), vehicle: saline): 210 % of control
- T/C (endpoint: median survival time, dose: 450.0 mg/kg/injection, schedule: Q01DX001 (ip), vehicle: saline): 154 % of control

SMILES: COC1=[C]([Hg][Br])C(OC)OC1OC (configuration not stated)
- T/C (endpoint: mean survival time, dose: 5.0 mg/kg/injection, schedule: Q01DX001 (ip), vehicle: saline): 98 % of control
- T/C (endpoint: mean survival time, dose: 10.0 mg/kg/injection, schedule: Q01DX001 (ip), vehicle: saline): 102 % of control
- T/C (endpoint: mean survival time, dose: 20.0 mg/kg/injection, schedule: Q01DX001 (ip), vehicle: saline): 110 % of control
